ChEMBL document CHEMBL1154088, “Synthesis, biological evaluation and docking studies of novel benzopyranone congeners for their expected activity as anti-inflammatory, analgesic and antipyretic agents” (Bioorg Med Chem, 2009)

system: Mus musculus; assay: Analgesic activity in mouse assessed as protection against acetic acid-induced writhing at one-tenth of LD50 administered subcutaneously 30 mins before acetic acid challenge measured after 4 hrs relative to control; assay type: functional; conditions: not given

Structure (SMILES)	Activity
COc1ccc(C2CC(c3c(O)ccc4c(-c5ccccc5)cc(=O)oc34)=NN2c2ccc([N+](=O)[O-])cc2[N+](=O)[O-])cc1 (stereo not given)	3.58%
N#Cc1c(-c2ccccc2O)cc(-c2c(O)ccc3c(-c4ccccc4)cc(=O)oc23)[nH]c1=O	6.38%
CN(C)c1ccc(/C=C/C(=O)c2c(O)ccc3c(-c4ccccc4)cc(=O)oc23)cc1	9.41%
CN(C)c1ccc(-c2cc(-c3c(O)ccc4c(-c5ccccc5)cc(=O)oc34)[nH]c(=O)c2C#N)cc1	2.35%
CC(=O)c1c(O)ccc2c(-c3ccccc3)cc(=O)oc12	2.81%
N#Cc1c(-c2ccc(Cl)cc2)cc(-c2c(O)ccc3c(-c4ccccc4)cc(=O)oc23)[nH]c1=O	1.66%

system: Rattus norvegicus; assay: Antipyretic activity against yeast-induced hyperpyrexia in hyperthermic rat assessed as rectal temperature at one-tenth of LD50 administered subcutaneously 18 hrs after yeast challenge measured after 1 hr (Rvb=39.24 +/- 0.22 degC); assay type: functional; conditions: not given

Structure (SMILES)	Activity
COc1ccc(C2CC(c3c(O)ccc4c(-c5ccccc5)cc(=O)oc34)=NN2c2ccc([N+](=O)[O-])cc2[N+](=O)[O-])cc1 (stereo not given)	38.81 °C
N#Cc1c(-c2ccccc2O)cc(-c2c(O)ccc3c(-c4ccccc4)cc(=O)oc23)[nH]c1=O	38.34 °C
CN(C)c1ccc(/C=C/C(=O)c2c(O)ccc3c(-c4ccccc4)cc(=O)oc23)cc1	38.31 °C
CN(C)c1ccc(-c2cc(-c3c(O)ccc4c(-c5ccccc5)cc(=O)oc34)[nH]c(=O)c2C#N)cc1	38.91 °C
CC(=O)c1c(O)ccc2c(-c3ccccc3)cc(=O)oc12	38.91 °C
N#Cc1c(-c2ccc(Cl)cc2)cc(-c2c(O)ccc3c(-c4ccccc4)cc(=O)oc23)[nH]c1=O	38.91 °C

system: Rattus norvegicus; assay: Antipyretic activity against yeast-induced hyperpyrexia in hyperthermic rat assessed as rectal temperature at one-tenth of LD50 administered subcutaneously 18 hrs after yeast challenge measured after 2 hrs (Rvb=39.11 +/- 0.26 degC); assay type: functional; conditions: not given

Structure (SMILES)	Activity
COc1ccc(C2CC(c3c(O)ccc4c(-c5ccccc5)cc(=O)oc34)=NN2c2ccc([N+](=O)[O-])cc2[N+](=O)[O-])cc1 (stereo not given)	38.91 °C
N#Cc1c(-c2ccccc2O)cc(-c2c(O)ccc3c(-c4ccccc4)cc(=O)oc23)[nH]c1=O	38.2 °C
CN(C)c1ccc(/C=C/C(=O)c2c(O)ccc3c(-c4ccccc4)cc(=O)oc23)cc1	38.21 °C
CN(C)c1ccc(-c2cc(-c3c(O)ccc4c(-c5ccccc5)cc(=O)oc34)[nH]c(=O)c2C#N)cc1	38.91 °C
CC(=O)c1c(O)ccc2c(-c3ccccc3)cc(=O)oc12	38.91 °C
N#Cc1c(-c2ccc(Cl)cc2)cc(-c2c(O)ccc3c(-c4ccccc4)cc(=O)oc23)[nH]c1=O	38.84 °C

system: Rattus norvegicus; assay: Antipyretic activity against yeast-induced hyperpyrexia in hyperthermic rat assessed as rectal temperature at one-tenth of LD50 administered subcutaneously 18 hrs after yeast challenge measured after 3 hrs (Rvb=39.20 +/- 0.24 degC); assay type: functional; conditions: not given

Structure (SMILES)	Activity
COc1ccc(C2CC(c3c(O)ccc4c(-c5ccccc5)cc(=O)oc34)=NN2c2ccc([N+](=O)[O-])cc2[N+](=O)[O-])cc1 (stereo not given)	38.91 °C
N#Cc1c(-c2ccccc2O)cc(-c2c(O)ccc3c(-c4ccccc4)cc(=O)oc23)[nH]c1=O	38.47 °C
CN(C)c1ccc(/C=C/C(=O)c2c(O)ccc3c(-c4ccccc4)cc(=O)oc23)cc1	38.51 °C
CN(C)c1ccc(-c2cc(-c3c(O)ccc4c(-c5ccccc5)cc(=O)oc34)[nH]c(=O)c2C#N)cc1	38.9 °C
CC(=O)c1c(O)ccc2c(-c3ccccc3)cc(=O)oc12	39 °C
N#Cc1c(-c2ccc(Cl)cc2)cc(-c2c(O)ccc3c(-c4ccccc4)cc(=O)oc23)[nH]c1=O	38.81 °C

system: Rattus norvegicus; assay: Antipyretic activity against yeast-induced hyperpyrexia in hyperthermic rat assessed as rectal temperature at one-tenth of LD50 administered subcutaneously 18 hrs after yeast challenge measured after 4 hrs (Rvb=39.17 +/- 0.20 degC); assay type: functional; conditions: not given

Structure (SMILES)	Activity
COc1ccc(C2CC(c3c(O)ccc4c(-c5ccccc5)cc(=O)oc34)=NN2c2ccc([N+](=O)[O-])cc2[N+](=O)[O-])cc1 (stereo not given)	38.91 °C
N#Cc1c(-c2ccccc2O)cc(-c2c(O)ccc3c(-c4ccccc4)cc(=O)oc23)[nH]c1=O	38.91 °C
CN(C)c1ccc(/C=C/C(=O)c2c(O)ccc3c(-c4ccccc4)cc(=O)oc23)cc1	38.86 °C
CN(C)c1ccc(-c2cc(-c3c(O)ccc4c(-c5ccccc5)cc(=O)oc34)[nH]c(=O)c2C#N)cc1	39.11 °C
CC(=O)c1c(O)ccc2c(-c3ccccc3)cc(=O)oc12	39.06 °C
N#Cc1c(-c2ccc(Cl)cc2)cc(-c2c(O)ccc3c(-c4ccccc4)cc(=O)oc23)[nH]c1=O	38.91 °C

system: not listed separately; assay: Toxicity in sc dosed albino mouse up to 24 hrs; assay type: organism-based; conditions: in vivo

Structure (SMILES)	LD50 at 24 h
COc1ccc(C2CC(c3c(O)ccc4c(-c5ccccc5)cc(=O)oc34)=NN2c2ccc([N+](=O)[O-])cc2[N+](=O)[O-])cc1 (stereo not given)	370 mg/kg
N#Cc1c(-c2ccccc2O)cc(-c2c(O)ccc3c(-c4ccccc4)cc(=O)oc23)[nH]c1=O	290 mg/kg
CN(C)c1ccc(/C=C/C(=O)c2c(O)ccc3c(-c4ccccc4)cc(=O)oc23)cc1	390 mg/kg
CN(C)c1ccc(-c2cc(-c3c(O)ccc4c(-c5ccccc5)cc(=O)oc34)[nH]c(=O)c2C#N)cc1	390 mg/kg
CC(=O)c1c(O)ccc2c(-c3ccccc3)cc(=O)oc12	290 mg/kg
N#Cc1c(-c2ccc(Cl)cc2)cc(-c2c(O)ccc3c(-c4ccccc4)cc(=O)oc23)[nH]c1=O	310 mg/kg

system: Rattus norvegicus; assay: Antiinflammatory activity against carrageenan-induced foot paw edema in rat assessed as reduction in paw size at one-tenth of LD50 administered subcutaneously 30 mins before carrageenan challenge measured after 3 hrs relative to control; assay type: functional; parameters: scale not given: the % may be the effect or the level left; conditions: not given

Structure (SMILES)	Activity
COc1ccc(C2CC(c3c(O)ccc4c(-c5ccccc5)cc(=O)oc34)=NN2c2ccc([N+](=O)[O-])cc2[N+](=O)[O-])cc1 (stereo not given)	11.61%
N#Cc1c(-c2ccccc2O)cc(-c2c(O)ccc3c(-c4ccccc4)cc(=O)oc23)[nH]c1=O	4.33%
CN(C)c1ccc(/C=C/C(=O)c2c(O)ccc3c(-c4ccccc4)cc(=O)oc23)cc1	17.4%
CN(C)c1ccc(-c2cc(-c3c(O)ccc4c(-c5ccccc5)cc(=O)oc34)[nH]c(=O)c2C#N)cc1	7.24%
CC(=O)c1c(O)ccc2c(-c3ccccc3)cc(=O)oc12	20.27%
N#Cc1c(-c2ccc(Cl)cc2)cc(-c2c(O)ccc3c(-c4ccccc4)cc(=O)oc23)[nH]c1=O	16.35%

system: Mus musculus; assay: Analgesic activity in mouse assessed as protection against acetic acid-induced writhing at one-tenth of LD50 administered subcutaneously 30 mins before acetic acid challenge measured after 1 hr relative to control; assay type: functional; conditions: not given

Structure (SMILES)	Activity
COc1ccc(C2CC(c3c(O)ccc4c(-c5ccccc5)cc(=O)oc34)=NN2c2ccc([N+](=O)[O-])cc2[N+](=O)[O-])cc1 (stereo not given)	3.58%
N#Cc1c(-c2ccccc2O)cc(-c2c(O)ccc3c(-c4ccccc4)cc(=O)oc23)[nH]c1=O	41.84%
CN(C)c1ccc(/C=C/C(=O)c2c(O)ccc3c(-c4ccccc4)cc(=O)oc23)cc1	37.41%
CN(C)c1ccc(-c2cc(-c3c(O)ccc4c(-c5ccccc5)cc(=O)oc34)[nH]c(=O)c2C#N)cc1	9.66%
CC(=O)c1c(O)ccc2c(-c3ccccc3)cc(=O)oc12	0%
N#Cc1c(-c2ccc(Cl)cc2)cc(-c2c(O)ccc3c(-c4ccccc4)cc(=O)oc23)[nH]c1=O	0%

system: Mus musculus; assay: Analgesic activity in mouse assessed as protection against acetic acid-induced writhing at one-tenth of LD50 administered subcutaneously 30 mins before acetic acid challenge measured after 2 hrs relative to control; assay type: functional; conditions: not given

Structure (SMILES)	Activity
COc1ccc(C2CC(c3c(O)ccc4c(-c5ccccc5)cc(=O)oc34)=NN2c2ccc([N+](=O)[O-])cc2[N+](=O)[O-])cc1 (stereo not given)	4.78%
N#Cc1c(-c2ccccc2O)cc(-c2c(O)ccc3c(-c4ccccc4)cc(=O)oc23)[nH]c1=O	30.49%
CN(C)c1ccc(/C=C/C(=O)c2c(O)ccc3c(-c4ccccc4)cc(=O)oc23)cc1	36.94%
CN(C)c1ccc(-c2cc(-c3c(O)ccc4c(-c5ccccc5)cc(=O)oc34)[nH]c(=O)c2C#N)cc1	7.54%
CC(=O)c1c(O)ccc2c(-c3ccccc3)cc(=O)oc12	2.34%
N#Cc1c(-c2ccc(Cl)cc2)cc(-c2c(O)ccc3c(-c4ccccc4)cc(=O)oc23)[nH]c1=O	1.18%

system: Mus musculus; assay: Analgesic activity in mouse assessed as protection against acetic acid-induced writhing at one-tenth of LD50 administered subcutaneously 30 mins before acetic acid challenge measured after 3 hrs relative to control; assay type: functional; conditions: not given

Structure (SMILES)	Activity
COc1ccc(C2CC(c3c(O)ccc4c(-c5ccccc5)cc(=O)oc34)=NN2c2ccc([N+](=O)[O-])cc2[N+](=O)[O-])cc1 (stereo not given)	3.58%
N#Cc1c(-c2ccccc2O)cc(-c2c(O)ccc3c(-c4ccccc4)cc(=O)oc23)[nH]c1=O	19.14%
CN(C)c1ccc(/C=C/C(=O)c2c(O)ccc3c(-c4ccccc4)cc(=O)oc23)cc1	22.82%
CN(C)c1ccc(-c2cc(-c3c(O)ccc4c(-c5ccccc5)cc(=O)oc34)[nH]c(=O)c2C#N)cc1	7.54%
CC(=O)c1c(O)ccc2c(-c3ccccc3)cc(=O)oc12	4.92%
N#Cc1c(-c2ccc(Cl)cc2)cc(-c2c(O)ccc3c(-c4ccccc4)cc(=O)oc23)[nH]c1=O	0.71%
